# In patent EP0879051B9, “RATE-CONTROLLED TRANSDERMAL ADMINISTRATION OF RISPERIDONE” (JANSSEN PHARMACEUTICA N.V., priority 1995, dated 1996):
# Experiment: In vitro transdermal permeation of risperidone, two-compartment diffusion cell
# Assay type: in vitro ADME, hairless rats
# Protocol: Experimental Part : In vitro study of the transdermal permeation of risperidone.
# An in vitro model using a vertical, two-compartment diffusion cell assembly mounted with freshly excised full thickness abdominal skin of hairless rats (Iffa credo) was used in this study. […] The receptor solution in all experiments consisted of Hanks Balanced Salt Solution (Gibco BRL) with sodium azide). The skin permeation profile was followed for up to 50 h by sampling the receptor solution and assaying the drug concentration by measuring the radioactivity (Ready Safe, Beckmann-Wallac 1410LKB). The ratio of the cumulated quantities detected in the receptor compartment to the skin area (ng/cm^2) were plotted in function of the time and the flux of risperidone through the skin in the presence of various solvents and skin permeation enhancers was deduced from the linear part of the plotted results.
# [1] = Experiment 2: donor borate buffer pH 10, 0.1 M (900 µl/ml) + ethanol (95%; 100 µl/ml) + risperidone (100 µg/ml)
# [2] = Experiment 4: donor propylene glycol + lauric acid (LA) 5%, risperidone 10 mg/ml
# [3] = Experiment 4: donor propylene glycol + oleic acid (OA) 5%, risperidone 10 mg/ml
# [4] = donor propylene glycol, 0% enhancer, risperidone 10 mg/ml
structure (smiles),measurement,setting,value
"Cc1nc2n(c(=O)c1CCN1CCC(c3noc4cc(F)ccc34)CC1)CCCC2 [risperidone, 3-[2-[4-(6-fluoro-1,2-benzisoxazol-3-yl)-1-piperidinyl]ethyl]-6,7,8,9-tetrahydro-2-methyl-4H-pyrido[1,2-a]pyrimidin-4-one]",flux,"Experiment 1: donor borate buffer pH 10, 0.1 M + risperidone at 40mg/ml",0.181 µg/cm^2.h
same,flux,[1],0.869 µg/cm^2.h
same,latency period,[1],13.9 h
same,flux (1%),"Experiment 3: donor propylene glycol + eucalyptus oil 1%, risperidone 10 mg/ml",4.54 µg/cm^2.h
same,latency period (5%),"Experiment 3: donor propylene glycol + eucalyptus oil 5%, risperidone 10 mg/ml",6.2 h
same,flux (5%),"Experiment 3: donor propylene glycol + eucalyptus oil 5%, risperidone 10 mg/ml, very high flux probably due to skin damage",126.74 µg/cm^2.h
same,latency period (LA %),"Experiment 3: donor propylene glycol + eucalyptus oil (printed 'LA %'), risperidone 10 mg/ml",15.2 h
same,flux (5% LA),[2],15.39 µg/cm^2.h
same,latency period (5% LA),[2],4.3 h
same,flux (5% OA),[3],18.9 µg/cm^2.h
same,latency period (5% OA),[3],17 h
same,flux (0%),[4],3.89 µg/cm^2.h
same,latency period (0%),[4],14.2 h
